Data from the Kinase Knowledgebase extract (Sharma et al. 2016).

The molecules below were run against MAPK14 (human) (UniProt Q16539) (assay: Inhibition of MAPK14 Kinase Activity).
Chain of MAPK14 (human) (Q16539 whole entry, looked up): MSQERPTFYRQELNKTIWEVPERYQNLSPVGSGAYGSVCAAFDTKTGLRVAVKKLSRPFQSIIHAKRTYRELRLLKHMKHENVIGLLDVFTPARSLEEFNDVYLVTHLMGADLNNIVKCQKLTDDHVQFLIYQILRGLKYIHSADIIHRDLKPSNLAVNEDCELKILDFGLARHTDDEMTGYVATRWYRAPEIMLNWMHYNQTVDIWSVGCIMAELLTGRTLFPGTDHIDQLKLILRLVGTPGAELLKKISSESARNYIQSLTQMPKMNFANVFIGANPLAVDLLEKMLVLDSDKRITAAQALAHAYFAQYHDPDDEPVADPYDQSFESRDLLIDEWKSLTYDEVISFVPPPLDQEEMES

| IC50 | Structure (SMILES) |
| --- | --- |
| ≤ 10 µM | NC(=O)c1cccc(-c2cnc3[nH]cc(C(=O)c4cc(O)ccc4F)c3c2)c1 |
| ≤ 10 µM | CCCS(=O)(=O)Nc1ccc(Cl)c(C(=O)c2c[nH]c3ncc(-c4cccnc4)cc23)c1F |
| ≤ 10 µM | O=C(c1c(F)ccc(NCc2ccccc2)c1F)c1c[nH]c2ncc(-c3cccnc3)cc12 |
| ≤ 10 µM | O=S(=O)(NCc1c[nH]c2ncccc12)c1ccc(N2CCOCC2)nc1 |
| ≤ 10 µM | O=C(Nc1ccc(Cc2c[nH]c3ncccc23)cc1)Nc1ccc(Cl)c(C(F)(F)F)c1 |
| ≤ 10 µM | O=C(c1cccc(Cl)c1Cl)c1c[nH]c2ncc(-c3cccnc3)cc12 |
| ≤ 10 µM | O=C(c1ccccc1F)c1c[nH]c2ncc(-c3ccsc3)cc12 |
| ≤ 10 µM | COC(=O)Nc1ccc(F)c(Cc2c[nH]c3ncc(-c4cccnc4)cc23)c1F |
| ≤ 10 µM | CS(=O)(=O)Nc1ccc(F)c(C(=O)c2c[nH]c3ncc(-c4cccc(S(C)(=O)=O)c4)cc23)c1F |
| ≤ 10 µM | CCc1cnc2[nH]cc(C(=O)c3cccc(OC)c3)c2c1 |
| ≤ 10 µM | Cc1ccccc1C(=O)c1c[nH]c2ncc(-c3cccc(N)c3)cc12 |
| ≤ 10 µM | Cc1ccc(F)cc1C(=O)c1c[nH]c2ncc(-c3cccc(NS(C)(=O)=O)c3)cc12 |
| ≤ 10 µM | O=C(c1cc(F)ccc1F)c1c[nH]c2ncc(-c3ccsc3)cc12 |
| ≤ 10 µM | O=C(c1cccc(O)c1F)c1c[nH]c2ncc(-c3cccs3)cc12 |
| ≤ 10 µM | O=C(c1cccc(F)c1F)c1c[nH]c2nccc(-c3cc(F)cc(F)c3)c12 |
| ≤ 10 µM | O=C(c1ccccc1O)c1c[nH]c2ncc(-c3cccs3)cc12 |
| ≤ 10 µM | CS(=O)(=O)Nc1cccc(-c2cnc3[nH]cc(C(=O)c4cc(O)ccc4F)c3c2)c1 |
| ≤ 10 µM | COc1cccc(C(=O)c2c[nH]c3ncc(-c4cccc(N)c4)cc23)c1 |
| ≤ 10 µM | O=C(c1cc(O)ccc1F)c1c[nH]c2ncccc12 |
| ≤ 10 µM | CCCS(=O)(=O)Nc1ccc(F)c(C(=O)c2c[nH]c3ncc(-c4ccccc4)cc23)c1F |
| ≤ 10 µM | CCCNC(=O)Nc1ccc(F)c(C(=O)c2c[nH]c3ncc(-c4cccnc4)cc23)c1F |
| ≤ 10 µM | CC(=O)Nc1cccc(-c2cnc3[nH]cc(C(=O)c4ccccc4F)c3c2)c1 |
| ≤ 10 µM | O=C(c1cccc(O)c1)c1c[nH]c2ncc(-c3ccsc3)cc12 |
| ≤ 10 µM | CS(=O)(=O)Nc1ccc(Cl)c(C(=O)c2c[nH]c3ncc(Br)cc23)c1F |
| ≤ 10 µM | Cn1cc(C(F)(F)F)c(-c2ccc(S(=O)(=O)NCc3c[nH]c4ncccc34)s2)n1 |

| IC50 | Structure (SMILES) |
| --- | --- |
| ≤ 10 µM | Nc1cccc(-c2cnc3[nH]cc(C(=O)c4cccc(Cl)c4Cl)c3c2)c1 |
| ≤ 10 µM | O=C(c1c(F)ccc(NS(=O)(=O)c2ccccc2)c1F)c1c[nH]c2ncc(-c3cccnc3)cc12 |
| ≤ 10 µM | Cc1c(O)cccc1C(=O)c1c[nH]c2ncc(-c3cccnc3)cc12 |
| ≤ 10 µM | CS(=O)(=O)Nc1ccc(F)c(C(=O)c2c[nH]c3ncc(-c4ccccc4)cc23)c1F |
| ≤ 10 µM | Cc1c(O)cccc1C(=O)c1c[nH]c2ncc(-c3ccccc3)cc12 |
| ≤ 10 µM | CC(=O)Nc1cccc(-c2cnc3[nH]cc(C(=O)c4cccc(O)c4F)c3c2)c1 |
| ≤ 10 µM | CS(=O)(=O)Nc1ccc(F)c(C(=O)c2c[nH]c3ncc(-c4cccnc4)cc23)c1F |
| ≤ 10 µM | O=C(O)C=Cc1cccc(-c2cnc3[nH]cc(C(=O)c4cc(O)ccc4F)c3c2)c1 |
| ≤ 10 µM | Fc1ccc(/C=C/c2ccnc3[nH]ccc23)cc1 |
| ≤ 10 µM | O=C(c1cccc(O)c1F)c1c[nH]c2ncc(-c3cccnc3)cc12 |
| ≤ 10 µM | CCCS(=O)(=O)Nc1ccc(F)c(C(=O)c2c[nH]c3ncc(Br)cc23)c1F |
| ≤ 10 µM | CS(=O)(=O)Nc1ccc(Cl)c(C(=O)c2c[nH]c3ncc(-c4cccnc4)cc23)c1F |
| ≤ 10 µM | O=C(c1ccccc1F)c1c[nH]c2ncccc12 |
| ≤ 10 µM | CS(=O)(=O)Nc1ccc(Cl)c(C(=O)c2c[nH]c3ncc(-c4cccc(S(C)(=O)=O)c4)cc23)c1F |
| ≤ 10 µM | O=C(c1cc(O)ccc1F)c1c[nH]c2ncc(Br)cc12 |
| ≤ 10 µM | O=C(c1cc(O)ccc1F)c1c[nH]c2ncc(-c3cccs3)cc12 |
| ≤ 10 µM | O=C(c1cccc(O)c1F)c1c[nH]c2ncc(-c3ccccc3)cc12 |
| ≤ 10 µM | Nc1cccc(-c2cnc3[nH]cc(C(=O)c4ccc(Cl)cc4)c3c2)c1 |
| ≤ 10 µM | O=C(c1cccc(O)c1)c1c[nH]c2ncc(Br)cc12 |
| ≤ 10 µM | Oc1cccc(Cc2c[nH]c3ncc(-c4ccsc4)cc23)c1 |
| ≤ 10 µM | COc1cccc(C(=O)c2c[nH]c3ncc(-c4cccnc4)cc23)c1 |
| ≤ 10 µM | Cc1ccccc1C(=O)c1c[nH]c2ncc(-c3ccsc3)cc12 |
| ≤ 10 µM | O=C(c1cccc(O)c1)c1c[nH]c2ncc(-c3cccs3)cc12 |
| ≤ 10 µM | O=C(Nc1ccc(F)c(C(=O)c2c[nH]c3ncc(-c4cccnc4)cc23)c1F)OCc1ccccc1 |
| ≤ 10 µM | CCCS(=O)(=O)Nc1ccc(Cl)c(C(=O)c2c[nH]c3ncc(-c4ccccc4)cc23)c1F |

| IC50 | Structure (SMILES) |
| --- | --- |
| ≤ 10 µM | Nc1cccc(-c2cnc3[nH]cc(C(=O)c4ccccc4F)c3c2)c1 |
| ≤ 10 µM | CS(=O)(=O)Nc1ccc(F)c(C(=O)c2c[nH]c3ncc(-c4cccnc4)cc23)c1 |
| ≤ 10 µM | O=C(c1c(F)ccc(NS(=O)(=O)c2ccccc2)c1F)c1c[nH]c2ncc(Br)cc12 |
| ≤ 10 µM | COc1cccc(C(=O)c2c[nH]c3ncc(-c4cccc(C(N)=O)c4)cc23)c1 |
| ≤ 10 µM | Cc1c(O)cccc1C(=O)c1c[nH]c2ncc(-c3cccs3)cc12 |
| ≤ 10 µM | NC(=O)c1ccc(-c2cnc3[nH]cc(C(=O)c4cccc(O)c4)c3c2)cc1 |
| ≤ 10 µM | O=C(Nc1ccc(Cc2c[nH]c3ncccc23)cc1)Nc1cccc(C(F)(F)F)c1 |
| ≤ 10 µM | O=C(c1cccc(O)c1F)c1c[nH]c2ncc(-c3cncnc3)cc12 |
| ≤ 10 µM | NC(=O)c1ccc(-c2cnc3[nH]cc(C(=O)c4ccccc4F)c3c2)cc1 |
| ≤ 10 µM | CCS(=O)(=O)Nc1ccc(F)c(C(=O)c2c[nH]c3ncc(-c4cccnc4)cc23)c1F |
| ≤ 10 µM | COc1cccc(C(=O)c2c[nH]c3ncc(-c4cccs4)cc23)c1 |
| ≤ 10 µM | CCCS(=O)(=O)Nc1ccc(F)c(C(=O)c2c[nH]c3ncc(Cl)cc23)c1F |
| ≤ 10 µM | O=C(c1c(F)ccc(O)c1F)c1c[nH]c2ncc(-c3cccnc3)cc12 |
| ≤ 10 µM | Oc1ccc(F)c(Cc2c[nH]c3ncc(Br)cc23)c1F |
| ≤ 10 µM | Clc1ccc(Nc2ccnc3[nH]ccc23)cc1Cl |
| ≤ 10 µM | O=C(c1ccc(O)cc1Cl)c1c[nH]c2ncc(-c3cccs3)cc12 |
| ≤ 10 µM | O=C(c1ccccc1F)c1c[nH]c2ncc(-c3ccccn3)cc12 |
| ≤ 10 µM | c1cc(Nc2ccc3ncsc3c2)c2cc[nH]c2n1 |
| ≤ 10 µM | O=C(c1cc(O)ccc1F)c1c[nH]c2ncc(-c3cccnc3)cc12 |
| ≤ 10 µM | Cc1ccc(F)cc1C(=O)c1c[nH]c2ncc(-c3ccsc3)cc12 |
| ≤ 10 µM | Cc1ccc(S(=O)(=O)NCc2c[nH]c3ncccc23)cc1 |
| ≤ 10 µM | CS(=O)(=O)Nc1cccc(-c2cnc3[nH]cc(C(=O)c4cc(NS(C)(=O)=O)ccc4F)c3c2)c1 |
| ≤ 10 µM | CS(=O)(=O)Nc1cccc(-c2cnc3[nH]cc(C(=O)c4cccc(O)c4F)c3c2)c1 |
| ≤ 10 µM | CS(=O)(=O)Nc1ccc(F)c(C(=O)c2c[nH]c3ncc(-c4cccc(C(N)=O)c4)cc23)c1 |
| ≤ 10 µM | CS(=O)(=O)Nc1ccc(F)c(C(=O)c2c[nH]c3ncc(-c4ccccc4)cc23)c1 |

| Structure (SMILES) | IC50 |
| --- | --- |
| c1ccc2c(Cc3c[nH]c4ncccc34)cccc2c1 | ≤ 10 µM |
